The subject of experiment [1] is Vibrio fischeri. Nature of the experiment: Metals spotted on chromatography paper sheet, dried, exposed to luminescent bacteria. The following applies: no chromatography separation. The class given is cell-based. From the text:
Upon spotting of the various metals along one side of a chromatography paper sheet, the sample spots were allowed to dry. Upon drying, the spotted sheets were exposed to the luminescent bacteria Vibrio fischeri.

In experiment [2] the test system is Vibrio fischeri. Put plainly: Inhibition of luminescence of luminescent bacteria (general statements). The class given is cell-based.

Regarding `[Cd]` [cadmium], in the experiment on Vibrio fischeri [1], the “visualization of heavy metal salts by luminescent bacteria” value is on record as “able to visualize the presence”.

With `[Ca+2]` [calcium ion], the “inhibition of luminescence of Vibrio fischeri” value with Vibrio fischeri [2] was “Neither does the luminescence of the Vibrio fischeri appear to be immediately inhibited”. As for lead, the “visualization of heavy metal salts by luminescent bacteria” value with Vibrio fischeri [1] is “able to visualize the presence”. Same read-out and setting: with mercury the entry was “able to visualize the presence”.
